Data on 13 compounds can be found in PMC8428256 (Journal of medicinal chemistry, 2021).

The target of series [1] is WIL-FL* (fluorescein-labeled WIL-FL LC dimer) (Homo sapiens, UniProt P01721, form not given/K101C). Briefly: Proteolysis-coupled fluorescence polarization. The class given is biochemical. To be noted: for potency (EC50) increase compared to 1: WIL-FL* EC50 ratio to compound 1. For orientation: Polarisation of emitted light reports the rotation of a fluorescent probe.
The subject of series [2] is WIL-FL* (fluorescein-labeled WIL-FL LC dimer). Briefly: Proteolysis-coupled fluorescence polarization. The class given is biochemical, human. To be noted: assay not given; data in Tables S2-S6 of the supplement.
Series [3] has as its system WIL-FL F98D. The settings on record: Figure S5.
In series [4] the test system is plasma proteins. The class given is in vitro ADME, human or mouse. The settings on record: 2 μM in plasma, dialysis 4 h, 37 °C.
For series [5], the target named is WIL-FL* T46L/F49Y (Homo sapiens, UniProt P01721, form not given/K101C/T66L). To be noted: WIL-FL T46L/F49Y EC50.
Sequence of WIL-FL* T46L/F49Y (P01721 20-117 T66L/K101C, form open): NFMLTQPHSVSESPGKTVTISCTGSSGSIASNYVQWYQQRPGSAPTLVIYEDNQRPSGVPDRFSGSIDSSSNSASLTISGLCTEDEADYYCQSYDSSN
Series [6] has as its system WIL-FL F98D. The settings on record: cited from earlier work.

Sequence of WIL-FL* (fluorescein-labeled WIL-FL LC dimer) (Homo sapiens, UniProt P01721, form not given/K101C) (P01721 20-117 K101C, form open): as the sequence (P01721 20-117 T66L/K101C, form open) above, with L47T counted along it
Sequence of WIL-FL* (fluorescein-labeled WIL-FL LC dimer) (P01721 20-117 K101C, form open): as the sequence (P01721 20-117 T66L/K101C, form open) above, with L47T counted along it

`CCN(CC)c1ccc2c(C)c(CCOC(=O)NCc3cccnc3)c(=O)oc2c1` [Compound 20, 2-(7-(diethylamino)-4-methyl-2-oxo-2H-chromen-3-yl)ethyl (pyridin-3-ylmethyl)carbamate]: the “potency (EC50) increase compared to 1” value in series [1] is reported as at most 8 fold.

For `Cc1c(CN2CCOCC2)c(=O)oc2cc(OC(C)c3ccccc3)ccc12` (centres unmarked) [Compound 62, 4-methyl-3-(morpholinomethyl)-7-(1-phenylethoxy)-2H-chromen-2-one], the “stabilizer potency (qualitative statement in text)” value in series [2] is “slightly increased their potency”.

As to `CCN(CC)c1ccc2c(C)c(CCOC(=O)NCc3cccc(NC(C)=O)c3)c(=O)oc2c1` [Compound 23, 2-(7-(diethylamino)-4-methyl-2-oxo-2H-chromen-3-yl)ethyl (3-acetamidobenzyl)carbamate], in series [1], the “potency (EC50) increase compared to 1” value was “up to 22 fold”.

Regarding `CCN(CC)c1ccc2c(C)c(CCOC(=O)NCc3cccc(-c4ccc[nH]c4=O)c3)c(=O)oc2c1` [Compound 27, 2-(7-(diethylamino)-4-methyl-2-oxo-2H-chromen-3-yl)ethyl (3-(2-oxo-1,2-dihydropyridin-3-yl)benzyl)carbamate], in series [3], the “proteinase K resistance provided to WIL-FL F98D” value is recorded as “no appreciable proteinase K resistance”.

For `Cc1cc(=O)oc2cc(OCC(C)c3ccccc3)ccc12` (centres unmarked) [Compound 57, 4-methyl-7-(2-phenylpropoxy)-2H-chromen-2-one], the “plasma protein binding (in words)” value in series [4] is on record as “very high plasma protein binding”. In addition, the “potency increase relative to 2” value in series [5] was 9 fold.

Consider `CCN(CC)c1ccc2c(C)c(CCOC(=O)NCc3cccc(C(N)=O)c3)c(=O)oc2c1` [Compound 25, 2-(7-(diethylamino)-4-methyl-2-oxo-2H-chromen-3-yl)ethyl (3-carbamoylbenzyl)carbamate], for which the “potency (EC50) increase compared to 1” value in series [1] is “up to 22 fold”.

Take `Cc1c(CN2CCOCC2)c(=O)oc2cc(OCC(C)c3ccccc3)ccc12` (centres unmarked) [Compound 63, 4-methyl-3-(morpholinomethyl)-7-(2-phenylpropoxy)-2H-chromen-2-one]: the “stabilizer potency (qualitative statement in text)” value in series [2] is “slightly increased their potency”.

As for `CCN(CC)c1ccc2c(C)c(CCOC(=O)N(C)CCc3cccnc3)c(=O)oc2c1` [Compound 22, 2-(7-(diethylamino)-4-methyl-2-oxo-2H-chromen-3-yl)ethyl methyl(2-(pyridin-3-yl)ethyl)carbamate], the “reduced potency compared to the secondary carbamate 21” value in series [1] (WIL-FL* EC50) turned out to be 70 fold.

For the compound `CCN(CC)c1ccc2c(C)cc(=O)oc2c1` [Compound 1], the “binding to LC with F98D mutation” value in series [6] is on record as “obviates binding”.

Consider `CCN(CC)c1ccc2c(C)c(CCOC(=O)NCc3cccc(-c4c[nH]cn4)c3)c(=O)oc2c1` [Compound 26, 2-(7-(diethylamino)-4-methyl-2-oxo-2H-chromen-3-yl)ethyl (3-(1H-imidazol-4-yl)benzyl)carbamate], for which, in series [1], the “potency (EC50) increase compared to 1” value is given as 42 fold.

Turning to `CCN(CC)c1ccc2c(C)c(CCOC(=O)NCCc3cccnc3)c(=O)oc2c1` [Compound 21, 2-(7-(diethylamino)-4-methyl-2-oxo-2H-chromen-3-yl)ethyl (2-(pyridin-3-yl)ethyl)carbamate], the “potency (EC50) increase compared to 1” value in series [1] was at most 8 fold.

Regarding `CCN(CC)c1ccc2c(C)c(CCOC(=O)NCC3CCCNC3)c(=O)oc2c1` (centres unmarked) [Compound 18, 2-(7-(diethylamino)-4-methyl-2-oxo-2H-chromen-3-yl)ethyl (piperidin-3-ylmethyl)carbamate], the “potency (EC50) increase compared to 1” value in series [1] was at most 8 fold.

In the case of `Cc1c(CCN2CC3(CCN(c4nccn5ccnc45)CC3)NC2=O)c(=O)oc2cc(O[C@H](C)c3ccccc3)ccc12` [(R)-83, (R)-8-(imidazo[1,2-a]pyrazin-8-yl)-3-(2-(4-methyl-2-oxo-7-(1-phenylethoxy)-2H-chromen-3-yl)ethyl)-1,3,8-triazaspiro[4.5]decan-2-one], the “proteinase K resistance provided to WIL-FL F98D” value in series [3] is “no appreciable proteinase K resistance”.
